Data: patent US4877796A (priority 1986, dated 1989)
Where two headings read alike, the source gives them in different places.

Tested on: disturbances of the cardiac rhythm (aconitine) in the rat
Assay type: in vivo
Conditions: for Precentage of the protraction of time: aconitine perfusion five minutes after administration, compared with controls

SMILES: CN1CCC[C@H]2CCC[C@@H](N(C)C(=O)Cc3ccc(Cl)c(Cl)c3)[C@@H]21 [Example 2, [4aRS(4aα,8α,8aα)](+) N-(decahydro-1-methyl-8-quinolinyl)-3,4-dichloro-N-methyl-benzene-acetamide]
- Precentage of the protraction of time (2.5 mg/kg intravenously): 16%
- Precentage of the protraction of time (5 mg/kg intravenously): 28%
- Precentage of the protraction of time (10 mg/kg intravenously): 43%
- antiarrythmic properties (in words) (intravenously, aconitine model): good antiarrythmic properties
